Measured values as given in patent US9164103B2, “Monitoring and inhibiting human immunodeficiency virus infection by modulating HMGB1 dependent triggering of HIV-1 replication and persistence” (priority 2008, dated 2015).

B1: rhs-TRAIL: recombinant human soluble TRAIL (protein, UniProt P50591 39-281, looked up)
extracellular domain: TNELKQMQDKYSKSGIACFLKEDDSYWDPNDEESMNSPCWQVKWQLRQLVRKMILRTSEETISTVQEKQQNISPLVRERGPQRVAAHITGTRGRSNTLSSPNSKNEKALGRKINSWESSRSGHSFLSNLHLRNGELVIHEKGFYYIYSQTYFRFQEEIKENTKNDKQMVQYIYKYTSYPDPILLMKSARNSCWSKDAEYGLYSIYQGGIFELKENDRIFVSVTNEHLIDMDHEASFFGAFLVG
modifications: extracellular domain

Assays:
[1] = tested on: iDCs cocultured with aNK cells; assay: aNK-dependent maturation of uninfected iDCs in aNK-iDC coculture (CD86/HLA-DR flow cytometry); format: cell-based, human; settings: 24 h aNK-iDC coculture, inhibitor 10 μg/ml added at initiation
Protocol: (a) Left panel: iDCs were cultured for 24 h either alone or with aNK cells, in the presence of blocking anti-HMGB1 antibodies (10 μg/ml) or glycyrrhizin (10 μg/ml). The maturation status of DCs was determined by flow cytometry with CD86 and HLA-DR—specific antibodies. Right panel: same experiment, but performed with HIV-1 infected iDCs. Data represent mean±sd of at least three independent experiments, and statistical comparisons were made with the non parametric Mann-Whitney test. * p<0.05. […] NK cells were excluded from the analysis through the co-staining with CD3- and CD56-specific antibodies (CD3^−CD56^+).
To determine the possible involvement of HMGB1 in NK-dependent DC maturation, glycyrrhizin, which is known to interact specifically with soluble HMGB1 molecule31, was used as well as anti-HMGB1 antibodies (FIG. 3a). […] The possible involvement of RAGE during NK-DC cross-talk was evaluated with the same approach, comparing RAGE expression on DCs cocultured with aNK cells and DC cultured alone.
After 6 days of culture in the presence of IL-4 and GM-CSF, iDCs (10^6 cells/ml) were either non stimulated, or stimulated during 48 h with 10 μg/ml LPS (E. coli serotype 026-B6, Sigma-Aldrich) to obtain DC0 cells, or 500 ng/ml of trimeric CD40L (Sigma-Aldrich) to obtain DC1 cells, or 10 μg/ml of LPS and 1 μg/ml PGE2 (Sigma-Aldrich) to obtain DC2 cells. […]

R5-HIV-1Ba-L = assay: HIV-1 replication in infected iDCs (p24 ELISA in culture supernatant); format: cell-based; settings: for HIV-1 production (p24 in supernatant): 3 days, inhibitor 10 μg/ml
Protocol: FIGS. 6 (a), (b) and (c). Exogenous rh-HMGB1 triggers HIV-1 and HIV-2 replication in iDC. (a) HIV-1-infected iDC were cultured alone or in the presence of aNK cells for 3 days. Rh-HMGB1 (1 μg/ml) was added in some cultures. HIV replication was measured by p24 quantification in culture supernatant (b) HIV1-infected iDC were cultured alone or in the presence of aNK cells for 3 days. Blocking anti-HMGB1 antibodies (10 μg/ml) or glycyrrhizin (10 μg/ml) were added at culture initiation. HIV replication was measured by p24 quantification in culture supernatant. The mean±sd of three independent experiments is shown. Statistical comparisons were made with the non parametric Mann-Whitney test. * p<0.05; (c) HIV-2-infected iDC were cultured alone or in the presence of aNK cells for 3 days. Rh-HMGB1 (1 μg/ml) was added in some cultures. HIV replication was measured by p24 quantification in culture supernatant.
Exogenous HMGB1 was recently reported to increase HIV-1 replication in infected monocytic cell lines38, and to induce in vitro the reactivation of HIV-1 in PBMCs from HIV-1-infected patients under antiretroviral therapy39. Therefore, the question of the role of HMGB1 in the NK-dependent triggering of HIV replication in DCs was addressed. […] To investigate the influence of HMGB1 in the triggering of HIV-1 replication in infected-iDC-aNK cocultures, HMGB1-specific neutralizing antibodies or glycyrrhizin were added to these cocultures and p24 production was measured in the supernatant. […] They also indicate that aNK cell-dependent stimulation of HIV-1 replication in iDCs is mediated by HMGB1.
Virus stock preparation was prepared by amplification of R5-HIV-1Ba-L on MDM from healthy donors. Viral stock was then clarified by centrifugation prior to determination of HIV1 p24 concentration. iDCs were plated in 96-well culture plates at 200,000 cells/well and incubated for 3 hours at 37° C. in a 5% CO2 atmosphere with R5-HIV-1BAL at various concentrations (0.001 to 10 ng p24/ml). Cells were harvested, washed four times with media containing 10% FCS and, when indicated, rNK or aNK cells were added at a NK:DC ratio of 1:5, unless otherwise indicated. NK-DC cocultures lasted 24 h before analysis of the maturation stage of DCs and/or quantification of viral production. In some experiments (FIG. 6), HIV-1 infected iDCs were incubated alone or with aNK cells for 3 days, in the presence of rh-HMGB1 (1 μg/ml) (R&DSystems), and in some cultures in the presence of rabbit antiHMGB1 Abs (10 μg/ml) (Abcam, Cambridge, UK) or Glycyrrhizin (10 μg/ml).
The concentration of HIV-1 in the supernatant of infected cell cultures was determined by measuring the amount of p24 protein by ELISA (Ingen, Belgium). DNA from cells was extracted using the GIAamp DNA Blood Mini Kit (Qiagen, Basel, Switzerland) and quantified HIV-1 proviral load by RT-PCR as described previously54. The frequency of HIV-1-infected cells was determined by flow cytometry to detect intracellular p24 molecule. Cells were surface stained with antibodies specific for CD40 (BD Biosciences, San Jose, Calif.) to target DC and intracellular stained with p24-specific antibodies (Coulter). Stained cells were fixed in 1% PFA, immediately acquired on a FACScalibur (Becton Dickinson) and analyzed with FlowJo software. In some experiments infected DCs were imaged, after immunofluorescence, by laser scanning confocal microscopy.

HIV-1-infected iDCs = assay: Apoptosis of HIV-1-infected iDCs (7-AAD assay); format: cell-based, human
Protocol: Living cells are 7-AAA^−, apoptotic cells 7-AAD^+, and apoptotic debris are 7-AAD^−FSC^low. Dot plots represent one of at least three independent experiments. […] Cell death was then quantified with the 7-AAD assay. The mean±sd of three independent experiments was presented.
(a) iDCs or HIV-1-infected iDCs were cultured alone or in the presence of aNK cells (NK:DC ratio of 5:1). […] Cell death was then quantified with the 7-AAD assay. (b) Same experiments were performed in the presence of blocking anti-HMGB1 antibodies (10 and 15 μg/ml). One representative experiment out of three conducted is shown.
Immature DCs (iDCs) were prepared from sorted monocytes from healthy donors, cultured for 6 days in the presence of IL-4 and GM-CSF. In some experiments, iDCs were infected with R5-HIV-1 (1 ng/ml of p24). Coculture experiments with autologous purified aNK cells (activated by PHA+IL-2) were performed at various NK:DC ratios. The influence of NK-DC interaction on DC's maturation and apoptosis was analyzed using multiparametric flow cytometry, combining 7-AAD staining with membrane and intracellular staining with mAbs specific for HLA-DR, DC-SIGN, CD83, CD86, DR4, mTRAIL, etc.
To investigate the impact of HIV on aNK-induced iDCs' apoptosis, iDCs were infected with R5-HIV-1 (1 ng of p24/ml).

Molecule	proportions of mature DCs (CD86bright HLA-DRbright) [1]	HIV-1 replication (R5-HIV-1Ba-L; 24 h cultures of infected iDCs, absence of NK cells)	HIV-1 production (p24 in supernatant) (R5-HIV-1Ba-L; infected DC cocultured with aNK cells)	HIV-1 production (p24 in supernatant) (R5-HIV-1Ba-L; infected DC cultured alone)	resistance of HIV-1-infected iDCs to aNK-induced apoptosis (HIV-1-infected iDCs; NK:DC ratio 5:1, inhibition assays)	TRAIL-induced apoptosis of HIV-1-infected DCs (HIV-1-infected iDCs; 24 h, 1-1000 ng/ml)
CC1(C)[C@@H](O[C@H]2O[C@H](C(=O)O)[C@@H](O)[C@H](O)[C@H]2O[C@@H]2O[C@H](C(=O)O)[C@@H](O)[C@H](O)[C@H]2O)CC[C@]2(C)[C@H]3C(=O)C=C4[C@@H]5C[C@@](C)(C(=O)O)CC[C@]5(C)CC[C@@]4(C)[C@]3(C)CC[C@@H]12 [glycyrrhizin]	reduced the proportions of mature DCs	decreased significantly HIV-1 replication	abrogated HIV-1 production	abrogated HIV-1 production	found dependent on HMGB1	
B1						still susceptible to TRAIL-induced apoptosis
